Data reported in patent US10064844B2, “Pharmaceutical compositions comprising an aromatse inhibitors” (MEREO BIOPHARMA 2 LIMITED, priority 2011, dated 2018).

Key:
[1] = Pharmacokinetics after oral administration to rats; format: in vivo
[2] = tested on: androstenedione-induced uterine hypertrophy; assay: Inhibition of androstenedione-induced uterine hypertrophy in rats (aromatase dependent model); format: in vivo; details: Rattus norvegicus
[3] = tested on: DMBA-induced mammary tumors; assay: Inhibition of DMBA-induced mammary tumors in rats (aromatase dependent model); format: in vivo; details: Rattus norvegicus
[4] = Single ascending dose study in pre- and post-menopausal women: pharmacokinetics; format: in vivo, human
From the text: (§1) A […] (MTD) was not reached. […] Table 4 presents the PK parameters based on preliminary analysis of the concentration-time profile obtained from this study.

[5] = tested on: estrone, estrone sulfate and estradiol; assay: Single ascending dose study in women: pharmacodynamics (estrogen suppression); format: in vivo, human
Description: Patients received either 0.1 mg, 1 mg, and 10 mg drug substance containing hard gelatin capsules as described in Example 2 or appropriate matching placebo capsules.
as §1
(§2) There were no changes in bone density by DEXA after 6 months.

[6] = tested on: other enzymes involved in steroid hormone synthesis or metabolism; assay: Single ascending dose study in women: other steroid hormone enzymes and hormone levels; format: in vivo, human; details: single doses
[7] = Single ascending dose study in women: safety and tolerability; format: in vivo
From the text: as §1, §2

[8] = Solid state properties of the drug substance (hygroscopicity, water solubility); format: physicochemical; details: crystalline powder

## N#Cc1ccc(C(F)(c2ccc(C#N)cc2)n2cncn2)cc1 [CGP47645, 4,4′-[fluoro-(1-H-1,2,4-triazol-1-yl)methylene]bisbenzonitrile]
[1]
  exposure expressed as AUC versus dose: proportional to the administered dose
[2]
  ED50: 3 µg/kg
[3]
  ED50: 0.01 mg/kg
[4]; 0.1 mg cohorts
  difference in pharmacokinetics between post- and pre-menopausal women: No differences
[4]; female, human, in vivo
  Tmax: 30 to 120 min
  half-life: 23 to 27 days
  median Tmax: ≤ 1 h
[4]; female, human, in vivo, 0.1 mg
  AUC(0-tlast), mean: 116.2 ng·h/mL
  Cmax, mean: 1.7 ng/mL
[4]; female, human, in vivo, 1 mg
  T1/2, mean: 22.4 days
[4]; female, human, in vivo, 20 mg
  T1/2, mean: 26.9 days
[4]; female, human, in vivo, po, 0.03 mg
  Tmax: 36 min
[4]; human, in vivo
  dose proportionality of pharmacokinetics (Cmax & AUC): dose proportional pharmacokinetics
  half life in humans compared with letrozole: longer half life in humans than does letrozole
[4]; single doses, women
  inter-subject variability: 10-30%
[5]; post-menopausal women, chemiluminescence or radioimmunoassay
  lowest single dose at which maximal estrogen suppression was observed: 0.1 mg
[5]; postmenopausal women
  lowest single dose at which transient estrogen suppression was seen: 0.01 mg
[6]
  inhibition of other enzymes involved in steroid hormone synthesis or metabolism: No inhibition
[7]; in vivo
  changes in bone density by DEXA: no changes
[7]; single doses 0.01 mg through 20 mg, women
  minimal toxic dose (MTD): not reached
[8]
  solubility in water: poorly soluble in water
